This is an account of results in ChEMBL document CHEMBL4342418, “1,2,3-Triazole-containing hybrids as potential anticancer agents: Current developments, action mechanisms and structure-activity relationships” (Eur J Med Chem, 2019).

Holding throughout (assay type): functional, cell-based
One test deals with MCF7. In words: cells. The following applies: Homo sapiens.
The next test relates to Lu1. In words: Antiproliferative activity against human Lu1 cells by MTT assay.
The test system of the next test is HL-60. The test can be described thus: Antiproliferative activity against human HL60 cells by MTT assay. A general note: Formazan colour is commonly taken as a measure of viable cells.
Another test deals with P388. In words: Antiproliferative activity against mouse P388 cells by MTT assay.
The subject of the next test is A549. In words: cells. To be noted: Homo sapiens.

Description for A549: Antiproliferative activity against human A549 cells by MTT assay
Description for MCF7: Antiproliferative activity against human MCF7 cells by MTT assay

For `CC1CCN(C(=O)c2ccc(-n3cc(CO[C@H]4O[C@@H]5O[C@@]6(C)CC[C@H]7[C@H](C)CC[C@@H]([C@H]4C)[C@@]57OO6)nn3)cc2)CC1`, the half-inhibitory concentration (IC50) in the test with MCF7, in the test on Lu1, with HL-60 and in the test on P388 was 2.5 to 4.7 µM throughout.

Turning to `CCN(CC)C(=O)c1ccc(-n2cc(CO[C@H]3O[C@@H]4O[C@@]5(C)CC[C@H]6[C@H](C)CC[C@@H]([C@H]3C)[C@@]46OO5)nn2)cc1`, the IC50 with MCF7, in the test on Lu1, in the test with HL-60 and in the test with P388 was 2.5 to 176 µM each time.

On to `CCN1CCN(C(=O)c2ccc(-n3cc(CO[C@H]4O[C@@H]5O[C@@]6(C)CC[C@H]7[C@H](C)CC[C@@H]([C@H]4C)[C@@]57OO6)nn3)cc2)CC1`, for which the IC50 with MCF7, in the test on Lu1, in the test with HL-60 and in the test on P388 was 2.5 to 176 µM each time.

As for `C[C@H]1[C@@H](OCc2cn(-c3ccc(C(=O)N4CCCC4)cc3)nn2)O[C@@H]2O[C@@]3(C)CC[C@H]4[C@H](C)CC[C@@H]1[C@@]24OO3`, the IC50 in the test on MCF7, in the test with Lu1, in the test with HL-60 and with P388 was 2.5 to 176 µM in each case.

As to `C[C@H]1[C@@H](OCc2cn(-c3ccc(C(=O)N4CCOCC4)cc3)nn2)O[C@@H]2O[C@@]3(C)CC[C@H]4[C@H](C)CC[C@@H]1[C@@]24OO3`, the half-inhibitory concentration (IC50) in the test with MCF7, in the test with Lu1, with HL-60 and in the test on P388 was 2.5 to 176 µM each time.

As to `C[C@H]1[C@@H](OCc2cn(-c3ccc(C(=O)N4CCCCC4)cc3)nn2)O[C@@H]2O[C@@]3(C)CC[C@H]4[C@H](C)CC[C@@H]1[C@@]24OO3`, the concentration for half-maximal inhibition (IC50) with MCF7, in the test on Lu1, in the test on HL-60 and in the test with P388 was 2.5 to 176 µM each time.

For the compound `CCC1(CCn2cc(COc3ccc(C)cc3)nn2)OCCc2c1[nH]c1ccccc21` (configuration not stated), the concentration for half-maximal inhibition (IC50) in the test with A549 came out at 3.65 µM. This lies in the single-digit micromolar range.

As to `C[C@H]1[C@@H](OCc2cn(-c3ccc(C(=O)N4CCN(c5ccccc5)CC4)cc3)nn2)O[C@@H]2O[C@@]3(C)CC[C@H]4[C@H](C)CC[C@@H]1[C@@]24OO3`, the 50% inhibitory concentration (IC50) in the test on MCF7, with Lu1, in the test with HL-60 and in the test on P388 was 2.5 to 176 µM throughout.

`CCC1(CCn2cc(COc3ccccc3)nn2)OCCc2c1[nH]c1ccccc21` (configuration not stated) came in with an IC50 with A549 of 3.29 µM.

On to `CC1CCCCN1C(=O)c1ccc(-n2cc(CO[C@H]3O[C@@H]4O[C@@]5(C)CC[C@H]6[C@H](C)CC[C@@H]([C@H]3C)[C@@]46OO5)nn2)cc1` (some centres not stated), for which the IC50 in the test on MCF7, in the test with Lu1, in the test on HL-60 and in the test on P388 was 2.5 to 176 µM in each case.

In the case of `CC[C@H]1OC(=O)[C@H](C)[C@@H](O[C@H]2C[C@@](C)(OC)[C@@](C)(CN(C)Cc3ccc(-c4cn(CCCCCCC(=O)NO)nn4)cc3)[C@H](C)O2)[C@H](C)[C@@H](O)[C@](C)(OC)C[C@@H](C)C(=O)[C@H](C)[C@@H](O)[C@]1(C)O`, the IC50 in the test on MCF7 was found to be 0.69 µM; in the test with A549, 0.99 µM.

Take `C[C@H]1[C@@H](OCc2cn(-c3ccc(C(=O)N4CCN(C)CC4)cc3)nn2)O[C@@H]2O[C@@]3(C)CC[C@H]4[C@H](C)CC[C@@H]1[C@@]24OO3`: the half-maximal inhibitory concentration (IC50) with MCF7, in the test on Lu1, in the test on HL-60 and in the test with P388 was 2.5 to 176 µM throughout.

Take `CO[C@H]1C[C@@H]2CC[C@@H](C)[C@@](O)(O2)C(=O)C(=O)N2CCCC[C@H]2C(=O)O[C@H]([C@H](C)C[C@@H]2CC[C@@H](O)[C@H](OC)C2)CC(=O)[C@H](C)/C=C(\C)[C@@H](O)[C@@H](OC)C(=O)[C@H](C)C[C@H](C)/C=C/C=C/C=C/1C` [SIROLIMUS]: the IC50 with MCF7 and in the test on A549 was 18.7 to 35.1 µM in each case.

The IC50 is the concentration that gives 50% inhibition. A high value points to weaker potency in that assay.
